A short description of series [1]: Cytostatic activity against human MT4 cells. It counts as cell-based.
For series [2], the system named is Hepatitis C virus. The experiment in a line: Antiviral activity against Hepatitis C virus infected in human Huh7 cells assessed as inhibition of HCV replication. To be noted: Huh-7. The series is classed as functional, organism-based, Hepacivirus hominis.
A short description of series [3]: Cytotoxicity against human HuH7 cells. The series is classed as cell-based, Huh-7.
For series [4], the system named is Hepatitis C virus. Nature of the series: Inhibition of HCV 1b NS5b polymerase. Further details: species or system Hepatitis C virus subtype 1b.

pEC50, pIC50: −log10 of the molar value.

By CC50 is commonly meant the concentration that lowers cell viability or growth by half. As usually defined, the pEC50 is −log10 of the EC50, conventionally taken in molar units. As a reminder, the pIC50 is the negative decadic logarithm of the IC50, by convention in mol/L. Low readings indicate a high IC50, high ones a low IC50.

Regarding `CCCCOC(=O)[C@H](C)NP(=O)(/C=C/[C@H]1O[C@@H](n2ccc(N)nc2=O)[C@H](F)[C@@H]1O)N[C@@H](C)C(=O)OCCCC`, the CC50 in series [1] and in series [3] was greater than 250 µM each time. The pEC50 in series [2] was 3.87.
On to `O=c1ccn([C@@H]2O[C@H](/C=C/P(=O)(O)O)[C@@H](O)[C@H]2F)c(=O)[nH]1` [listing 1 of 2 here], for which the pIC50 in series [4] was 4.51.
As to `Nc1ncnc2c1ncn2[C@@H]1O[C@H](COP(=O)(O)O)[C@@H](O)[C@H]1F`, the pEC50 in series [2] is 3.87. In addition, the CC50 in series [3] was greater than 250 µM.
In the same order, the values of `O=c1ccn([C@@H]2O[C@H](COP(=O)(O)O)[C@@H](O)[C@H]2F)c(=O)[nH]1` are less than 3.60 and greater than 250 µM.
Regarding `O=c1ccn([C@@H]2O[C@H](CO)[C@@H](O)[C@H]2F)c(=O)[nH]1`, the pIC50 in series [4] was 4.89.
As for `Nc1ccn([C@@H]2O[C@H](COP(=O)(O)O)[C@@H](O)[C@H]2F)c(=O)n1`, the pEC50 in series [2] was 4.82. Further, the CC50 in series [3] was greater than 250 µM.
In the same order, the values of `Nc1ccn([C@@H]2O[C@H](/C=C/P(=O)(O)O)[C@@H](O)[C@H]2F)c(=O)n1` [listing 1 of 2 here] are 4.12 and greater than 250 µM.
On to `Nc1ccn([C@@H]2O[C@H](CO)[C@@H](O)[C@H]2F)c(=O)n1`, for which, in series [4], the pIC50 was 5.73.
`Nc1ncnc2c1ncn2[C@@H]1O[C@H](/C=C/P(=O)(O)O)[C@@H](O)[C@H]1F` [listing 1 of 2 here] gave a pIC50 in series [4] of 5.68.
On to `O=c1ccn([C@@H]2O[C@H](/C=C/P(=O)(O)O)[C@@H](O)[C@H]2F)c(=O)[nH]1` [listing 2 of 2 here], for which the pEC50 in series [2] was less than 3.60. The same compound yielded a CC50 in series [3] greater than 250 µM.
On to `Nc1ncnc2c1ncn2[C@@H]1O[C@H](CO)[C@@H](O)[C@H]1F` [2'-BETA-FLUORO-2',3'-DEOXYADENOSINE], for which the pIC50 in series [4] was 3.99.
For the compound `Nc1ncnc2c1ncn2[C@@H]1O[C@H](/C=C/P(=O)(O)O)[C@@H](O)[C@H]1F` [listing 2 of 2 here], the pEC50 in series [2] was 3.88. For the same compound, the CC50 in series [3] is greater than 250 µM.
In the same order, the values of `Nc1ncnc2c1ncn2[C@@H]1O[C@H](CCP(=O)(O)O)[C@@H](O)[C@H]1F` [listing 1 of 2 here] are less than 3.30 and greater than 500 µM.
Consider `CCCCOC(=O)[C@H](C)NP(=O)(CC[C@H]1O[C@@H](n2cnc3c(N)ncnc32)[C@H](F)[C@@H]1O)N[C@@H](C)C(=O)OCCCC`, for which the CC50 in series [1] was determined as 36 µM; in series [3], 24 µM. The pEC50 in series [2] was 4.96.
Regarding `CCCCOC(=O)[C@H](C)NP(=O)(/C=C/[C@H]1O[C@@H](n2ccc(=O)[nH]c2=O)[C@H](F)[C@@H]1O)N[C@@H](C)C(=O)OCCCC`, the CC50 was 92 µM in series [1] and greater than 250 µM in series [3]. For the same compound, in series [2], the pEC50 is 4.84.
In the same order, the values of `CCCCOC(=O)[C@H](C)NP(=O)(/C=C/[C@H]1O[C@@H](n2cnc3c(N)ncnc32)[C@H](F)[C@@H]1O)N[C@@H](C)C(=O)OCCCC` are 18 µM, 113 µM and 4.24.
As to `Nc1ncnc2c1ncn2[C@@H]1O[C@H](CCP(=O)(O)O)[C@@H](O)[C@H]1F` [listing 2 of 2 here], the pIC50 in series [4] was 5.34.
Still for that read-out and setting: for `Nc1ccn([C@@H]2O[C@H](/C=C/P(=O)(O)O)[C@@H](O)[C@H]2F)c(=O)n1` [listing 2 of 2 here] the value was 5.72.

The record behind these values is ChEMBL document CHEMBL2385027, “Evaluation of 2'-α-fluorine modified nucleoside phosphonates as potential inhibitors of HCV polymerase” (Bioorg Med Chem Lett, 2013).
